Assay results published in ChEMBL document CHEMBL3871296, “Phytochemical and cytotoxic studies on the roots of Euphorbia fischeriana” (Bioorg Med Chem Lett, 2017).

Legend:
[1] = Cytotoxicity against human A549 cells assessed as cell growth inhibition by MTT assay; format: functional, cell-based
[2] = Cytotoxicity against human Hep3B cells assessed as cell growth inhibition by MTT assay; format: functional, cell-based, Hep 3B2

| Structure (SMILES) | IC50 [1] | IC50 [2] |
| --- | --- | --- |
| CCCCCCCCCCCCCCCC(=O)O[C@@]12C[C@@H](C)[C@@]3(O)[C@@H](C=C(C=O)C[C@]4(O)C(=O)C(C)=C[C@@H]34)[C@@H]1C2(C)C | 9.38 µM | 12 µM |
| CC1(C)[C@H](O)CC[C@]2(C)[C@@H]1CC[C@@]13CC[C@@H](C[C@@H]12)[C@](O)(CO)C3 | > 100 µM | > 100 µM |
| CC1(C)OC[C@@]2(C[C@@]34CC[C@H]5C(C)(C)C(=O)CC[C@]5(C)[C@H]3CC[C@H]2C4)O1 | > 100 µM | 8.15 µM |
| C=C1C[C@@]23CC[C@@H]4C(C)(C)[C@H](O)CC[C@@]4(C)[C@H]2C[C@@H]1CC3=O | > 100 µM | > 100 µM |
| C=C(C)[C@@H]1CC[C@]2(C)CC[C@]3(C)[C@H](CC[C@@H]4[C@@]5(C)CC[C@H](OC(C)=O)C(C)(C)[C@@H]5CC[C@]43C)[C@@H]12 [LUPENYL ACETATE] | 29.8 µM | 18.7 µM |
| OCC(O)C(O)C(O)c1cncc(-c2ccco2)n1 (stereo not drawn) | > 100 µM | > 100 µM |
| CC1(C)C(=O)CC[C@]2(C)[C@@H]1CC[C@]13C[C@H](CO)[C@@H](CC[C@H]12)C3 | > 100 µM | > 100 µM |
| O=c1[nH]cc(F)c(=O)[nH]1 [FLUOROURACIL] | 16.6 µM | 9.36 µM |
| CC1(C)CC[C@]2(C)CC[C@]3(C)C(=CC=C4[C@@]5(C)C[C@@H](O)[C@H](O)C(C)(C)[C@@H]5CC[C@]43C)[C@@H]2C1 | 11.9 µM | 12.5 µM |
